Results on ten compounds are retold here after US7674823B2, “DNA-PK inhibitors” (Cancer Research Technology Limited, priority 2001, dated 2010).

The target of data set [1] is T1, Mammalian DNA-PK, isolated from Hela cell nuclear extract (Homo sapiens, UniProt P78527).
T1 construct: Mammalian DNA-PK, isolated from Hela cell nuclear extract; endogenous in cells; host or cells: HeLa cell nuclear extract (purified per Gell and Jackson 1999)
The data set can be described thus: DNA-PK inhibition assay (33P-ATP, filter binding). It is filed as biochemical. In outline: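 DNA-PK from HeLa nuclear extract preincubated with compound 10 min at 30 °C, then started with 50 μM Na-ATP final, ^33P-γATP and 30mer dsDNA (10 ng/μl), run 45 min at 30 °C.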

Data set [2] concerns ATM protein. As to the kind of experiment: ATM inhibition assay (immunoprecipitated ATM, GSTp53N66 substrate). The class given is biochemical, human. The conditions noted are these: selectivity ratio from the IC50s for ATM and DNA-PK. As for the experimental part: (§1) In order to assess the inhibitory action of the compounds against ATM in vitro, the following assay was used to determine IC50 values.
(§2) ATM protein was immunoprecipitated from HeLa cell nuclear extract using rabbit polyclonal antisera raised to the C-terminal ˜500 amino-acid residues of the human ATM protein. The immunoprecipitation was performed according to the methodology described by Banin, S. et al. (1998) Enhanced phosphorylation of p53 by ATM in response to DNA damage. Science 281:1674-1677. 10 μl of immunoprecipitated ATM in Buffer C (50 mM Hepes, pH 7.4, 6 mM MgCl2, 150 mM NaCl, 0.1 mM sodium orthovanadate, 4 mM MnCl2, 0.1 mM dithiothreitol, 10% glycerol) was added to 32.5 μl of buffer C containing 1 μg of the ATM substrate GSTp53N66 in a V-bottomed 96 well polypropylene plate. The GSTp53N66 substrate is the amino terminal 66 amino acid residues of human wild type p53 fused to glutathione S-transferase. ATM phosphorylates p53 on the residue serine 15 (Banin, S. et al. (1998) Enhanced phosphorylation of p53 by ATM in response to DNA damage. Science 281:1674-1677). Varying concentrations of inhibitor were then added. […] After 10 minutes of incubation at 37° C., the reactions were initiated by the addition of 5 μl of 50 μM Na-ATP. After 1 h with shaking at 37° C., 150 μl of phosphate buffered saline (PBS) was added to the reaction and the plate centrifuged at 1500 rpm for 10 minutes. 5 μl of the reaction was then transferred to a 96 well opaque white plate containing 45 μl of PBS to allow the GSTp53N66 substrate to bind to the plate wells. The plate was covered and incubated at room temperature for 1 h with shaking before discarding the contents. The plate wells were washed twice by the addition of PBS prior to the addition of 3% (w/v) bovine serum albumin (BSA) in PBS. The plate was incubated at room temperature for 1 h with shaking before discarding the contents and washing twice with PBS. To the wells, 50 μl of a 1:10,000 dilution of primary phosphoserine-15 antibody (Cell Signaling Technology, #9284L) in 3% BSA/PBS was added to detect the phosphorylation event on the serine 15 residue of p53 elicited by the ATM kinase. After 1 h of incubation at room temperature with shaking, the wells were washed four times with PBS prior to the addition of an anti-rabbit HRP conjugated secondary antibody (Pierce, 31462) with shaking for 1 h at room temperature. The wells were then washed four times with PBS before the addition of chemiluminescence reagent (NEN Renaissance, NEL105). The plate was then shaken briefly, covered with a transparent plate seal and transferred to a TopCount NXT for chemiluminescent counting. Counts per second, following a one second counting time, were recorded for each reaction. The inhibition of ATM activity by compounds was calculated as described above for the DNA-PK assay.
(§3) The selectivity was determined by the following equation: […]

The target of data set [3] is T2, ATM protein (Homo sapiens, UniProt Q13315).
T2 construct: ATM protein was immunoprecipitated from HeLa cell nuclear extract; endogenous in cells; host or cells: HeLa cell nuclear extract (immunoprecipitate)
The description is as above. The class given is biochemical. As to the method: as §1, §2, §3

In the next data set the test system is HeLa cells. The data set can be described thus: Enhancement Ratio: cell growth inhibition (SRB assay) after 2 Gy irradiation. The class given is cell-based. Particulars: inhibitor 25 μM. As to the method:
DNA-PK inhibitors were used at a fixed concentration of 25 micromolar. Radiation was delivered by a Faxitron 43855D X-ray system at a dose rate of 1Gy per minute The Enhancement ratio at 2 Gy irradiation was calculated from the formula: [formula] Cell growth was assessed using the sulforhodamine B (SRB) assay (Skehan, P., Storung, R., Scudiero, R., Monks, […]., Kenny, S. and Boyd, M. R. (1990) New calorimetric cytotoxicity assay for anticancer-drug screening. J. Natl. Cancer Inst. 82:1107-1112). 400 HeLa cells were seeded into each well of a flat-bottomed 48-well microtiter plate in a volume of 200 μl and incubated for 6 h at 37° C. […] Cells were allowed to grow for a further 1 h before irradiation or mock irradiation. Cells untreated with DNA-PK inhibitor or unirradiated were used as a control. Cells treated with DNA-PK inhibitor alone were used to assess the growth inhibition by the DNA-PK inhibitor. Cells were left for a further 16 h before replacing the media and allowing the cells to grow for a further 6 days at 37° C. The media was then removed and the cells fixed with 200 μl of ice cold 10% (w/v) trichloroacetic acid. The plates were incubated at 4° C. for 20 minutes and then washed four times with water. Each well of cells was then stained with 200 μl of 0.4% (w/v) SRB in 1% acetic acid for 20 minutes before washing four times with 1% acetic acid. Plates were then dried for 2 h at room temperature. The dye from the stained cells was solubilized by the addition of 100 μl of 10 mM Tris Base into each well. Plates were gently shaken and left at room temperature for 30 minutes before measuring the optical density at 564 nm on a Microquant microtiter plate reader.
A general note: The SRB assay estimates cell density from bound dye.

Data set [4] concerns PI 3-kinase (p110α/p85α). As to the kind of experiment: PI 3-kinase inhibition assay. It is filed as biochemical. Particulars: selectivity ratio from the IC50s for PI 3-kinase and DNA-PK.
Excerpt: (§4) In order to assess the inhibitory action of the compounds against PI 3-kinase in vitro, the following assay was used to determine IC50 values.
(§5) Baculoviral recombinant GST-fused PI 3-kinase (p110α/p85α) was purified from Sf9 insect cells using GSH-sepharose affinity chromatography as described (Wymann, M. T et al., (1996) Wortmannin inactivates phosphoinositide 3-kinase by covalent modification of Lys-802, a residue involved in the phosphate transfer reaction. Mol. Cell Biol. 16:1722-1733). PI 3-kinase (1 μl) was diluted in reaction buffer (89 μl of 50 mM Hepes pH 7.5, 150 mM NaCl, 0.1 mM Sodium Orthovanadate, containing 20 μg of phosphatidylinositol) and varying concentrations of inhibitor compound added. […] Reactions were incubated for a further 20 minutes at 37° C., before quenching with the addition of 400 μl of chloroform/methanol (1:1). Reactions were acidified by the addition of 200 μl of 1M HCl, before separation of the organic and aqueous phases by centrifugation at 10,000 g for 30 seconds. The organic phase was transferred to a fresh tube and washed twice with 150 μl of 1M hydrochloric acid/methanol (1:1), discarding the aqueous phase. The washed reaction product was then placed in a white 96-well plate with 100 μl of scintillation fluid and transferred to a TopCount NXT for scintillation counting. Counts per minute, following a one minute counting time, were recorded for each reaction. The inhibition of PI 3-kinase activity by compounds was calculated as described above for the DNA-PK assay.
as §3

Data set [5] has as its target T3, PI 3-kinase (p110α/p85α) (UniProt P32871).
T3 construct: other: GST-fused p110α/p85α
As to the kind of experiment: PI 3-kinase inhibition assay. It is filed as biochemical. Particulars: GST-fused p110α/p85α.
Excerpt: as §4, §5, §3

For the next data set, the system named is cells. Particulars: literature; cited from earlier work.
The target of another data set is PI 3-kinase. Particulars: stated to be the same as for DNA-PK; cited from earlier work.
Where [6] appears, read: IC50 of less than about 1 μM and/or % inhibition of more than about 50 at 1 μM, read-out: DNA-PK inhibition IC50 (particular efficacy).
Setting [7] is: concentration at which 50% of the enzyme activity is inhibited, read-out: DNA-PK Inhibition IC50.

Molecules are shown by their SMILES. Where two headings read alike, the source gives them in different places.

T2 sequence (Q13315 whole entry): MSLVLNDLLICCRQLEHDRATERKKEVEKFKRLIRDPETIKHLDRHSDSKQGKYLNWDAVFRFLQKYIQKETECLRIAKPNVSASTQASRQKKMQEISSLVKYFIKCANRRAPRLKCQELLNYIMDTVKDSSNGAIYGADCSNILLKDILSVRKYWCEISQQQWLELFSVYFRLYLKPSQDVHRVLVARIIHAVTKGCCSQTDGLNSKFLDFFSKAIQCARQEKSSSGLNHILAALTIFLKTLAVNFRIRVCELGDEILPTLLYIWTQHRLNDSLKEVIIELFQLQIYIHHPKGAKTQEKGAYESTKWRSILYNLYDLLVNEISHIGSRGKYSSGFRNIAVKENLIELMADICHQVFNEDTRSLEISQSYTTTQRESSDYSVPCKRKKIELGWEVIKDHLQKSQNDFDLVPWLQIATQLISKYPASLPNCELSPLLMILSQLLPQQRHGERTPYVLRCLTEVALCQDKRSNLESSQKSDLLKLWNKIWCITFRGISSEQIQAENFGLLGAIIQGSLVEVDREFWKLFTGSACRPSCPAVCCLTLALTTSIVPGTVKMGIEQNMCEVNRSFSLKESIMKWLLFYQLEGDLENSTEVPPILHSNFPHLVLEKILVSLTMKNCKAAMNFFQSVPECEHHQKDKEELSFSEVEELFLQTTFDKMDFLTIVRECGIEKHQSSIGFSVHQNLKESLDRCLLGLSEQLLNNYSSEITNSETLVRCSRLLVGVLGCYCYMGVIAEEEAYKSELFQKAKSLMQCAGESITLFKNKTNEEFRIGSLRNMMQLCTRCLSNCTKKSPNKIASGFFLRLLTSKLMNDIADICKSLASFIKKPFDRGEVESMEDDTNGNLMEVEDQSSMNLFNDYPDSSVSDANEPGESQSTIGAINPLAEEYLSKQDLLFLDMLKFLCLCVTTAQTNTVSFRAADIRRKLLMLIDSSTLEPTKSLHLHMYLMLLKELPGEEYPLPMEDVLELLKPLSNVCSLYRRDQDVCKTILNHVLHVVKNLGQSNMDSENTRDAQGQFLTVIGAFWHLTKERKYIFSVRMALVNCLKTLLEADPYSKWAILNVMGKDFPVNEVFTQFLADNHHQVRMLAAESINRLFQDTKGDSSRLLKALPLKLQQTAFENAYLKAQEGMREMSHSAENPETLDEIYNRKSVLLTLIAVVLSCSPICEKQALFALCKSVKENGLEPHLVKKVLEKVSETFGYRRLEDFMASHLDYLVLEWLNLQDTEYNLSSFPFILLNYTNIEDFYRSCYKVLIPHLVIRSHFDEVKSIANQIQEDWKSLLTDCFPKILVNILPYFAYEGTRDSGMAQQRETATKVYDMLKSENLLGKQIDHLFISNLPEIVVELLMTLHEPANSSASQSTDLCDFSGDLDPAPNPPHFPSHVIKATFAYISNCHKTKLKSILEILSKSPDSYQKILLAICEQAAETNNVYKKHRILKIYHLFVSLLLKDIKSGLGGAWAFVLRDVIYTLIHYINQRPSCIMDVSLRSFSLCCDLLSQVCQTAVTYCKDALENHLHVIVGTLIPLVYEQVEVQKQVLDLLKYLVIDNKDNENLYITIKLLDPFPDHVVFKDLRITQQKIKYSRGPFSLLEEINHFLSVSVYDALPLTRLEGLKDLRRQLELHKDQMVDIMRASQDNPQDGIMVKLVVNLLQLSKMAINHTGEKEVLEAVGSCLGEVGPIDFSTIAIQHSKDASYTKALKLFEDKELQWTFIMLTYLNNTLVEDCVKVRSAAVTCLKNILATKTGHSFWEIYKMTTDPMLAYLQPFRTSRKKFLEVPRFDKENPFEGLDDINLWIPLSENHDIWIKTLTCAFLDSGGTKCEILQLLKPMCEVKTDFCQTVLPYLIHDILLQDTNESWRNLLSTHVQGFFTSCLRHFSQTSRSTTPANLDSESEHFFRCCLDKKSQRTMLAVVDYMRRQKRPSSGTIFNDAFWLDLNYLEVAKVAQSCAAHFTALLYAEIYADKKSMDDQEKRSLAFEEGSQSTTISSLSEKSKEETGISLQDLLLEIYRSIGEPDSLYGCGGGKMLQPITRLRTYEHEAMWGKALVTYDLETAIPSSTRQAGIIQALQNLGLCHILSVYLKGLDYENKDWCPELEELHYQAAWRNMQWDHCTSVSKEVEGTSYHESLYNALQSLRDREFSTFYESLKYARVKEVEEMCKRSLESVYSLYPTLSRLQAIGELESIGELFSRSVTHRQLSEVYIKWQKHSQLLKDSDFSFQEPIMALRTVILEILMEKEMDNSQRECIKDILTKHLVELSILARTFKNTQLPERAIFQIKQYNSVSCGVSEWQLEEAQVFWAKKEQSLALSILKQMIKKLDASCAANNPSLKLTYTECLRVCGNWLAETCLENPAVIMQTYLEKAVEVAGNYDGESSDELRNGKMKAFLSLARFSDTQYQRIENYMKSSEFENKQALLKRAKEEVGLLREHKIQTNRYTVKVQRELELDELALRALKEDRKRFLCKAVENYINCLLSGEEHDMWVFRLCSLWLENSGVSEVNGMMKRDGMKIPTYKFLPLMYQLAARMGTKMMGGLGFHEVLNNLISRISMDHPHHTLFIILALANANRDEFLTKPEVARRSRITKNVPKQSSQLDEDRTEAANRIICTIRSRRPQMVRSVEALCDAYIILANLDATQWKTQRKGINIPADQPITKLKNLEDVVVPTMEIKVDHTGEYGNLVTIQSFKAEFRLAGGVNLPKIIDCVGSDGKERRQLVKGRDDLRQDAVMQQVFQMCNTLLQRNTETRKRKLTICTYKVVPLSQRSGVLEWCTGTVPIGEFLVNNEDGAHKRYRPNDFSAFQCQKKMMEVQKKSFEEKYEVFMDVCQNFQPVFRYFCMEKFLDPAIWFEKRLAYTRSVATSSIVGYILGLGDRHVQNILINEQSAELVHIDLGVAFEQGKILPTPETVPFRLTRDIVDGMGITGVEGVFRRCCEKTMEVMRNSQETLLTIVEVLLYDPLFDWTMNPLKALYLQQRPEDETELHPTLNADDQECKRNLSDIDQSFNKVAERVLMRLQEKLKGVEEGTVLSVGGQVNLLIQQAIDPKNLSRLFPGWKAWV

As usually defined, the IC50 is the concentration at which inhibition is half-maximal. Take `O=c1cc(N2CCOCC2)nc2c3ccccc3ccn12` [Compound 5, 2-morpholin-1-yl-pyrimido-[2,1-a]isoquinolin-4-one]: the IC50 in data set [1] (setting [6]) is less than 1000 nM; in data set [1] (setting [7]), 350 nM; against ATM protein [3], more than 100000 nM. In addition, the “Δ(DNA-PK/ATM)” value with ATM protein [2] is more than 286. In the data set on HeLa cells, the “Enhancement Ratio (ER)” value is 1.63. Moreover, in the data set with PI 3-kinase (p110α/p85α) [4], the “Δ(DNA-PK/PI 3-K)” value is recorded as more than 143.
Broadly, the melting point is the temperature of the solid-liquid transition. Regarding `O=c1cc(-c2ccc(F)cc2)oc(N2CCOCC2)c1` [Compound 292, 6-(4-fluorophenyl)-2-(morpholin-4-yl)pyran-4-one], the melting point lay within 216 to 217 °C. The “Δ(DNA-PK/ATM)” value in the data set with ATM protein [2] was more than 400. This compound also yielded an IC50 on ATM protein [3] of more than 100000 nM. Also, the “Δ(DNA-PK/PI 3-K)” value in the data set on PI 3-kinase (p110α/p85α) [4] amounted to 52. In addition, on PI 3-kinase (p110α/p85α) [5], the half-maximal inhibitory concentration (IC50) was 13000 nM.
Consider `O=c1cc(N2CCOCC2)oc2c1ccc1ccccc12` [Compound 293, 2-(morpholin-4-yl)-benzo[h]chromen-4-one], for which the IC50 is less than 1000 nM in data set [1] (setting [6]), 400 nM in data set [1] (setting [7]), more than 100000 nM on ATM protein [3] and 20000 nM on PI 3-kinase (p110α/p85α) [5]. Also, the “Δ(DNA-PK/ATM)” value in the data set on ATM protein [2] is on record as more than 250. In the data set with HeLa cells, the “Enhancement Ratio (ER)” value is listed as 1.7. Also, the “Δ(DNA-PK/PI 3-K)” value with PI 3-kinase (p110α/p85α) [4] is reported as 50.
For the compound `O=c1cc(N2CCSCC2)oc2c1ccc1ccccc12` [Compound 296, 2-(thiomorpholin-4-yl)-benzo[h]chromen-4-one], the melting point lay within 171 to 173 °C. Besides, the IC50 in data set [1] (setting [7]) is 1200 nM. For the same compound, the “Δ(DNA-PK/ATM)” value with ATM protein [2] was more than 83. On ATM protein [3], this compound displayed an IC50 of more than 100000 nM. Also, the “Δ(DNA-PK/PI 3-K)” value with PI 3-kinase (p110α/p85α) [4] is reported as 5. In addition, at PI 3-kinase (p110α/p85α) [5], half-maximal inhibition (IC50) required 6000 nM.
As to `O=c1cc(N2CCOCC2)oc2cc3ccccc3cc12` [Compound 301, 2-(morpholin-4-yl)-benzo[g]chromen-4-one], the melting point was found to be 219 °C. For the same compound, the IC50 in data set [1] (setting [6]) is less than 1000 nM. For the same compound, in [1] (setting [7]), the IC50 came to 400 nM. Besides, the “Δ(DNA-PK/ATM)” value in the data set on ATM protein [2] is on record as more than 125. Also, the IC50 against ATM protein [3] is more than 50000 nM. Besides, in the data set with PI 3-kinase (p110α/p85α) [4], the “Δ(DNA-PK/PI 3-K)” value was determined as 40. The compound also yielded an IC50 against PI 3-kinase (p110α/p85α) [5] of 16000 nM.
As to `O=c1cc(N2CCOCC2)oc2cc(OCc3ccccc3)ccc12` [Compound 337, 7-Benzyloxy-2-morpholin-4-yl-chromen-4-one], the IC50 in [1] (setting [6]) is less than 1000 nM; in [1] (setting [7]), 650 nM; on ATM protein [3] it was more than 100000 nM. Besides, the “Δ(DNA-PK/ATM)” value in the data set on ATM protein [2] is recorded as more than 154. Moreover, in the data set with HeLa cells, the “Enhancement Ratio (ER)” value stood at 1.12.
Regarding `O=c1cc(N2CCOCC2)oc2cc(OCc3ccc(F)cc3)ccc12` [Compound 414, 7-(4-Fluoro-benzyloxy)-2-morpholin-4-yl-chromen-4-one], the IC50 was 1500 nM in data set [1] (setting [7]), more than 100000 nM against ATM protein [3] and 95000 nM against PI 3-kinase (p110α/p85α) [5]. For the same compound, the “Enhancement Ratio (ER)” value in the data set with HeLa cells stood at 1.69.
As for `O=c1cc(N2CCOCC2)oc2cc(OCc3ccc(Cl)cc3)ccc12` [Compound 415, 7-(4-chlorobenzyloxy)-2-(morpholin-4-yl)-chromen-4-one], the IC50 in [1] (setting [6]) is less than 1000 nM; in data set [1] (setting [7]), 500 nM; against ATM protein [3], more than 100000 nM; on PI 3-kinase (p110α/p85α) [5], more than 100000 nM. Moreover, the “Δ(DNA-PK/ATM)” value in the data set with ATM protein [2] is recorded as more than 200. Besides, the “Enhancement Ratio (ER)” value in the data set with HeLa cells is given as 1.86. Besides, in the data set with PI 3-kinase (p110α/p85α) [4], the “Δ(DNA-PK/PI 3-K)” value is more than 200.
As to `O=c1cc(N2CCOCC2)oc2cc(OCc3ccc(Br)cc3)ccc12` [Compound 416, 7-(4-Bromobenzyloxy)-2-morpholin-4-yl-chromen-4-one], the melting point fell in the range of 221 to 222 °C. In data set [1] (setting [6]), the IC50 was less than 1000 nM. The IC50 in [1] (setting [7]) was 600 nM. Besides, in the data set on ATM protein [2], the “Δ(DNA-PK/ATM)” value is more than 167. Also, the IC50 on ATM protein [3] is more than 100000 nM. Moreover, in the data set with HeLa cells, the “Enhancement Ratio (ER)” value was determined as 1.32.
With `O=c1cc(N2CCOCC2)oc2c(-c3ccccc3)cccc12` [LY294002], the “sensitisation of cells to the effects of IR” value in the data set with cells is recorded as “weakly sensitise”. Further, the IC50 on PI 3-kinase was approximately 1000 nM.
